# Measured values published in US6924309B2 (Children, Youth and Women's Health Service Incorporated, priority 1999, dated 2005).
# Where two headings read alike, the source gives them in different places.
# Experiments:
# [1] = Petri-dish thin film autoxidation of arachidonic acid with thia fatty acids and sulfides (HPLC)
# Protocol: A stock solution in dichioromethane (2 ml) containing arachidonic acid 1 (18 mg) and 3-[(3Z,6Z)-nona-3,6dienylthio]propionic acid 106 (18 mg) was prepared with lauric acid (18 mg) as an internal standard. Samples of the stock solution (100 μl) were added to glass Petri-dishes followed by ethanol (400 μl). After evaporation of the solvent, a well-distributed thin film was formed on each Petri-dish. The Petri-dishes were placed in a desiccator, which was then evacuated, filled with oxygen and stored in the darkness. Dishes were removed from the desiccator after 1, 2, 3, 5 and 7 days. The mixture on each dish was redissolved in diethyl ether and transferred to a 2 ml vial. After evaporation of the solvent, the residue was dissolved in the HPLC mobile phase (100 μl) and 10% of the solution was analysed by HPLC using a reverse phase column (octadecylsilane) (4.6 mm×250 mm, 3 μm) and a refractive index detector.
# Autoxidation of arachidonic acid was conducted in the presence of compound 19 and lauric acid. Stock solutions of arachidonic acid, compound 19 and lauric acid in dichloromethane with equal concentrations were added to a 25 ml round-bottomed flask, and the solvent was evaporated to leave a thin film on the internal surface of the flask. The flask was then filled with oxygen and kept in the dark. The percentages of arachidonic acid and compound 19 remaining after 7 days were measured by HPLC. The same assay was carried out simultaneously with several flasks but the results were not reproducible. The variation was attributed to differences in oxygen concentration and the surface area of the thin films formed in the flasks. Therefore, in order to establish a reproducible assay for the analysis of the autoxidation of arachidonic acid, Petri-dishes with uniform size (80 mm in diameter) were used instead of flasks for thin film formation and the oxidation was carried out by placing the Petri-dishes in a dessicator filled with oxygen. To assess this method, thin firms of arachidonic acid with lauric acid as a standard were prepared on six Petri-dishes using identical treatment, and then subjected to oxidation in the same dessicator filled with oxygen. After 24 h, the percentage of arachidonic acid recovered following autoxidation in each Petri-dish was determined by HPLC. […] The advantage of using a Petri-dish over a flask is that the thin films on each Petri-dish are spread over the same area, and each Petri-dish is exposed to oxygen to the same extent.
# Using the Petri-dish assay method, the effects of the thia PUFAs and sulfides 106 and 108-111, along with compounds 18, 19 and 3-[(Z,Z,Z)-(octadeca-9,12,15-trienylthio)] propionic acid 112 which were available in the laboratory, on the autoxidation of arachidonic acid, were examined. In addition, the stability of these compounds in the presence of arachidonic acid was also investigated. Arachidonic acid and lauric acid as a standard were mixed with each sulfur compound at different ratios and the mixtures were subjected to thin film autoxidation. The mixtures were analysed by HPLC after 1,2,3,5 and 7 days.
# [2] = Reaction with tert-butyl hydroperoxide to the sulfoxide; format: physicochemical; settings: CH2Cl2, RT, after 9 h
# Excerpt: To further investigate the possible involvement of hydroperoxide-induced sulfoxide formation in the antioxidant behaviour of the γ-thia and β-thia fatty acids 18, 19, 106, 108, 109 and 112, compounds 108 and 109 (in a ratio of 1:1 in CH2Cl2) were allowed to react with tert-butyl hydroperoxide. [drawing 37]
# The reaction was monitored by TLC and ^1H NMR analysis. […] The ^1H NMR spectrum of compound 114 contains two multiplets at δ2.88-3.07 and two doublets at δ3.63-3.86 corresponding to the methylene protons on the carbons adjacent to sulfur.
# [3] = target: T1, 15-LO (Glycine max, UniProt P08170); assay: Effect on 15-LO catalysed oxidation of arachidonic acid; format: biochemical, soybean; settings: for Ki: mixed inhibition pattern
# T1 construct: purchased Sigma Chemical Company
# T1 sequence (P08170 1-839): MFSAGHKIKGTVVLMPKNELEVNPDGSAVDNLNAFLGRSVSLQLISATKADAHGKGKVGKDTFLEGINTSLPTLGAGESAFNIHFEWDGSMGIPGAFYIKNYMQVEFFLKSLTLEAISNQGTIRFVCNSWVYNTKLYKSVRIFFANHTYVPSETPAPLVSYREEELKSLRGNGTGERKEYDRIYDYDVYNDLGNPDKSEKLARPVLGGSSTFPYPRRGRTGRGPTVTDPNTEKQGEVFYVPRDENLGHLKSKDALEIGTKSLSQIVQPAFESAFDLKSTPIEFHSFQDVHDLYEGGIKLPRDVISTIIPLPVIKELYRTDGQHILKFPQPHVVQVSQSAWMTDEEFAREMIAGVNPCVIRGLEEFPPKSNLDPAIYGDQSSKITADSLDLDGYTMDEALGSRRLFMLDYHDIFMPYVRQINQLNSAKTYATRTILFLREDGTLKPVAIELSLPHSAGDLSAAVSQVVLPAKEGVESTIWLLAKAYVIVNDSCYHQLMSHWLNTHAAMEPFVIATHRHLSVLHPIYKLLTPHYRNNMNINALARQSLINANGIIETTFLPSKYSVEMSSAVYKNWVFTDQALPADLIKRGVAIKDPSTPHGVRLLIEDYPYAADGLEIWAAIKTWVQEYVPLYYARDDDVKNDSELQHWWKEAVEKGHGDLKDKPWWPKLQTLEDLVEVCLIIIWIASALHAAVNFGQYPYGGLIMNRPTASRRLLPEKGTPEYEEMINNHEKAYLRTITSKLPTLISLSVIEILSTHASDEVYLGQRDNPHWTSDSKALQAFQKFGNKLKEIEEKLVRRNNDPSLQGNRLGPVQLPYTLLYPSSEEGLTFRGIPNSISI
# [4] = tested on: 5-LO; assay: Effect on 5-LO catalysed oxidation of arachidonic acid; format: biochemical
# [5] = target: T2, 12-LO (Sus scrofa, UniProt P16469); assay: Effect on 12-LO catalysed oxidation of arachidonic acid; format: biochemical, porcine
# T2 construct: purchased Cayman Chemical Company
# T2 sequence (P16469 1-663): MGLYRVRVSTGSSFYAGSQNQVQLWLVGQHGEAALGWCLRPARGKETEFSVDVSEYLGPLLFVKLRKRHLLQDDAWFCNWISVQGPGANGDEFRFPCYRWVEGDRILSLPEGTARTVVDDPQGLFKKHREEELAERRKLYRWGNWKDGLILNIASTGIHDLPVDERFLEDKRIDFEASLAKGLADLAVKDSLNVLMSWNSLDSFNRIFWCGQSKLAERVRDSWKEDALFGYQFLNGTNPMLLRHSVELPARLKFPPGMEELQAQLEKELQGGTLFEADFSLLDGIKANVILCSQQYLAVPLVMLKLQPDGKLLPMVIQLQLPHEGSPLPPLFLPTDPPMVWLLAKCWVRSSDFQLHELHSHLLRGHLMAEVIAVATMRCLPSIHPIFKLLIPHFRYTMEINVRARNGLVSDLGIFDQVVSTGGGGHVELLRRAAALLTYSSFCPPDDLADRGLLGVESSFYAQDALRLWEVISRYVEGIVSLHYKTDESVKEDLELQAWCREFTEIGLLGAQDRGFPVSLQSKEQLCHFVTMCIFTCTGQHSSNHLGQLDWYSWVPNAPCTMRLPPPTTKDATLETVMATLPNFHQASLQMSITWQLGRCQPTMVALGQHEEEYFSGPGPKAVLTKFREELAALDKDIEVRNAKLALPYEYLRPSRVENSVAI
# [6] = Paw oedema; settings: in vivo
# [7] = tested on: Plasmodium falciparum isolates 3D7, FC27, K+; assay: Radiometric (3H-hypoxanthine) assay on asexual blood stages of P. falciparum; format: cell-based
# Protocol: Using the radiometric assay^(36), the effects of the Lx compounds were examined for antimalarial activity. The Plasmodium falciparum isolates used were 3D7, FC27, K^1 and K^+. These were maintained in human blood group O^+ erythrocytes essentially as described previously using RPM-1640 (HEPES modification) supplemented with 0.25% D-glucose, 0.2% Tess buffer (Sigma Chemical Co, Lt Louis, Mo.) and 10% heat inactivated (56° C., 20 min) human blood group AB serum. Cultures were maintained in tissue culture flasks (Corning, N.Y.) at 37° C. under an atmosphere of 1% 2, 5% CO2 in N2. P. falciparum cultures containing approximately 3.0:% parasitaemia were adjusted to 1×10^8 erythrocytes/ml. To 50 μl of the parasite-erythrocyte culture (5×10^6 erythrocytes) in wells of 96-well microdilution plates wvas added 50 μl of the designated concentration of fatty acid or equivalent amounts of solutions or media. The treated cultures were incubated at 37° C. for 4 h and then pulsed with 50 μl (2.5 μCi) of ^3H-hypoxanthine. After a further 18 h incubation the parasites-erythrocytes were harvested onto glass fibre filter papers using a cell harvester. The amount of radioactivity incorporated was measured in a β-counter. The results have been expressed as % inhibition of parasite growth i.e. the dpm in the fatty acid diluent−dpm in the fatty acid treated cultures/dpm in diluent×100.
# [8] = tested on: TNF-α; assay: TNF-α production by human peripheral blood leukocytes; format: cell-based; settings: Leukocyte, stimulus S. aureus, read-out: % Inhibition (compared to control) of TNF-α
# Protocol: (§1) The effects of the nitroalkanes (Lx1-Lx5) on lymphocyte activation and cytokine production were examined. The ability of the PUFA to suppress mitogen-induced proliferation in response to PHA and S. aureus, and to inhibit cytokine production (TNFα and IFNγ), was assessed.
# [9] = tested on: IFN-γ; assay: IFN-γ production by human peripheral blood leukocytes; format: cell-based; settings: Leukocyte, stimulus PHA, read-out: % Inhibition (compared to control) of IFN-γ
# Protocol: as §1
# [10] = tested on: human neutrophils; assay: AA-enhanced chemiluminescence in human neutrophils; format: cell-based; settings: neutrophils pretreated with compound
# Protocol: Arachidonic acid (AA) is a natural agonist which stimulates oxygen radical production in neutrophils leading to tissue damage during inflammation. Studies were conducted to examine whether or not the Lx compounds could antagonise the effects of AA. Neutrophils were pretreated with Lx compounds and then examined for chemiluminescence response to AA addition. […] The effect of Lx compounds on AA-enhanced chemiluminescence in human neutrophils is shown graphically in FIG. 11.
# [11] = ratio arachidonic acid:compound 1:1, 1 day
# [12] = ratio arachidonic acid:compound 1:1, 2 days
# [13] = ratio arachidonic acid:compound 1:1, 3 days
# [14] = ratio arachidonic acid:compound 1:1, 5 days
structure (smiles),measurement,setting,value
CCCCCCCCCCCCCCSCCC(=O)O [Compound 108],Antioxidant effect on autoxidation of arachidonic acid (in words),[1],effective antioxidants
same,Arachidonic acid (%) recovered following autoxidation in the presence of the compound,[1]; [11],98%
same,Compound (%) recovered following autoxidation with arachidonic acid,[1]; [11],99%
same,Arachidonic acid (%) recovered following autoxidation in the presence of the compound,[1]; [12],93%
same,Compound (%) recovered following autoxidation with arachidonic acid,[1]; [12],91%
same,Arachidonic acid (%) recovered following autoxidation in the presence of the compound,[1]; [13],79%
same,Compound (%) recovered following autoxidation with arachidonic acid,[1]; [13],86%
same,Arachidonic acid (%) recovered following autoxidation in the presence of the compound,[1]; [14],30%
same,Compound (%) recovered following autoxidation with arachidonic acid,[1]; [14],44%
same,Compound (%) recovered following autoxidation with arachidonic acid,"[1]; ratio arachidonic acid:compound 1:1, 7 days",37%
same,Conversion to the sulfoxide by tert-butyl hydroperoxide,[2],completely converted
"CCCCCCCCCCCCCCCCCC[N+](=O)[O-] [Lx1, 1-Nitrooctadecane]",Effect on 15-LO catalysed oxidation of AA,[3],Nil
same,Effect on 5-LO catalysed oxidation of AA,[4],Nil
same,Effect on 12-LO catalysed oxidation of AA,[5],Nil
same,Effect in paw oedema,[6],inflammatory
"CC/C=C\C/C=C\C/C=C\CCCCCCCC[N+](=O)[O-] [Lx2, (z,z,z)-1-Nitro-9,12,15-octadecatriene]",Effect on 15-LO catalysed oxidation of AA,[3],Nil
same,Antimalarial activity (in words),[7],most promising
same,inhibition at 20 µM,[8],43.7%
same,inhibition at 20 µM,[9],40.4%
"CCCCC/C=C\C/C=C\C/C=C\C/C=C\CCCC[N+](=O)[O-] [Lx4, (a11-z)-1-Nitro-5,8,11,14-eicosatetraene]",Effect on 15-LO catalysed oxidation of AA,[3],Nil
same,Effect on 5-LO catalysed oxidation of AA,[4],Nil
same,Effect on 12-LO catalysed oxidation of AA,[5],Nil
same,"Antimalarial activity on P. falciparum 3D7 (FIG. 1, in words)",[7]; isolate 3D7,activity is lost
same,inhibition at 20 µM,[8],34%
same,inhibition at 20 µM,[9],79.8%
"CCCCCCCCCCCCCCCCCC(CCC(=O)O)[N+](=O)[O-] (stereo not drawn) [Lx6, 4-Nitrohenicosanoic acid]",Effect on 15-LO catalysed oxidation of AA,[3],Activatory
same,Effect on 15-LO catalysed oxidation of AA,[3]; listed as 6a,not 15LO
same,Effect on 5-LO catalysed oxidation of AA,[4],Inhibitory
same,Effect on 5-LO catalysed oxidation of AA,[4]; listed as 4-nitrohenicosanoic acid,selective inhibitors
same,Effect on 5-LO catalysed oxidation of AA,[4]; listed as 6a,inhibiting 5-LO
same,IC50,"[4]; read-out: IC50, 5-LO catalysed oxidation of AA",60 µM
same,Effect on 12-LO catalysed oxidation of AA,[5],Activatory
same,Effect on 12-LO catalysed oxidation of AA,[5]; listed as 6a,Neither 8a nor 6a inhibits 12-LO
"CCCCCCCCCCCCCCCCCC(CCC(=O)O)(CCC(=O)O)[N+](=O)[O-] [Lx8, 3-Heptadecyl-3-nitropentane-1,5-dicarboxylic acid]",Effect on 15-LO catalysed oxidation of AA,[3],Inhibitory
same,Effect on 15-LO catalysed oxidation of AA,"[3]; listed as 3-heptadecyl-3-nitropentane-1,5-dicarboxylic acid",selective inhibitors
same,Effect on 15-LO catalysed oxidation of AA,[3]; listed as 8a,inhibitory effect
same,Ki,"[3]; read-out: Ki, 15-LO catalysed oxidation of arachidonic acid",27.4 µM
same,Ki,"[3]; read-out: Kl (second inhibitor constant; printed Ki in Table 3), 15-LO catalysed oxidation of arachidonic acid",55.2 µM
same,Effect on 5-LO catalysed oxidation of AA,[4],Nil
same,Effect on 12-LO catalysed oxidation of AA,[5],Activatory
same,Effect on 12-LO catalysed oxidation of AA,[5]; listed as 8a,Neither 8a nor 6a inhibits 12-LO
"CCCCC/C=C\C/C=C\C/C=C\C/C=C\CCCC(CCC(=O)O)(CCC(=O)O)[N+](=O)[O-] [Lx9, 3-[(a11-Z)-Nonadeca-4,7,10,13-tetraenyl] 4-nitroheptane-1,7-dicarboxylic acid]",Effect on 15-LO catalysed oxidation of AA,[3],Nil
same,Effect on 5-LO catalysed oxidation of AA,[4],Activatory
same,Effect on 12-LO catalysed oxidation of AA,[5],Inhibitory
same,Effect on 12-LO catalysed oxidation of AA,"[5]; listed as 3-(all-Z)-nonadeca4,7,10,13-tetraeny]-3-nitropertane-1,5-dicarboxylic acid",selective inhibitors
same,Effect on 12-LO catalysed oxidation of AA,[5]; listed as 8b,significant inhibitory effect
same,Antimalarial activity (in words),[7],did not have appreciable antimalarial activity
same,Inhibition of AA-stimulated oxygen radical production (chemiluminescence),[10],particularly evident
